Measurements: US11291659B2, “P38 kinase inhibitors reduce DUX4 and downstream gene expression for the treatment of FSHD” (Fulcrum Therapeutics, Inc., priority 2017, dated 2022)

Test system: DUX4-fl mRNA
Assay: DUX4-fl mRNA by nested qPCR in FSHD myotubes
Type: cell-based, Human
Settings: 10, 100, and 1000 nM vs DMSO
Protocol: In a 6 well plate, 450 μL Buffer RLT Plus was added. Lysate was homogenized by transfer the lysate to a gDNA Eliminator spin column placed in a 2 mL collection tube (supplied), centrifuged for 30 s at ≥8000×g (≥10,000 rpm) and discarded column while saving the flow-through. Then 250 μL of Ethanol (35% final) was added to the flow-through, and mixed well by pipetting, not centrifuged. Then samples were transferred, including any precipitate that may have formed, to an RNeasy MinElute spin column placed in a 2 mL collection tube (supplied). Then centrifuged for 15 s at […]. Flow-through was discarded or collected for Protein precipitation. 700 μL Buffer RW1 to the RNeasy MinElute spin column was added then centrifuge for 15 s at ≥8000×g. and discard the flow-through. DNAse treatment was performed by gently mixing 10 μL DNAseI with 70 μL of Buffer RDD and added directly to the column, incubated at room temperature for 20 min. Then, 700 μL Buffer RW1 (per manufactures specification) to the RNeasy MinElute spin column, centrifuged for 15 s at ≥8000×g. and the flow-through discarded. 500 μL Buffer RPE was added to the RNeasy MinElute spin column centrifuged for 15 s at ≥8000×g and discarded the flow-through. […]
cDNA preparation. […] 10 seconds then read plate on QuantStudio7 as per manufactures instruction (Thermo). […]

Cn1c(=O)c(Oc2ccc(F)cc2F)cc2cnc(NC(CCO)CCO)nc21 [Pamapimod, 6-(2,4-difluorophenoxy)-2-((1,5-dihydroxypentan-3-yl)amino)-8-methylpyrido[2,3-d]pyrimidin-7(8H)-one]
DUX4-fl mRNA levels normalized to POLR2A mRNA: dose-dependently reduced
